# Experimental data taken from patent US10689359B2, “Crystals of quinazoline derivative and preparation method therefor” (Xuanzhu Pharma Co., Ltd., priority 2015, dated 2020).
# Where two headings read alike, the source gives them in different places.
# What was measured:
# [1] = Evaluation on pharmacokinetics in SD rats, intragastric administration; assay type: in vivo; conditions: 5 mg/kg
# Experimental: An amorphous form of a compound of Formula (I), the preparation method of which could be found in the particular Examples as disclosed in the international patent application (Publication No. WO 2012027960 A1).
# Test animal: SD rats, male, weighed 190-250 g, 6 rats for each crystal form, purchased from Beijing Vital River Laboratory Animal Technology Co., Ltd.
# Administration route: intragastric administration, at an administration dose of 5 mg/kg, and an administration volume of 10 mL/kg.
# Blood collection: whole blood (about 100 μL) was collected from tail vein 10 min, 30 min, 1 h, 2 h, 4 h, 6 h, 8 h, and 24 h after administration, and added to K2EDTA-containing anticoagulation tubes. The whole blood sample was centrifuged for 6 min at 4° C., 8000 rpm in a high speed centrifuge, and plasma was separated. Plasma needed to be prepared within 30 min after blood collection, and stored at −80° C. in a refrigerator.
# Plasma sample analysis: the plasma samples were analyzed by protein precipitation: to plasma (20 μL), an internal standard Gefitinib (200 μL, 50 ng/mL acetonitrile solution) was added; the resultant mixture was vortexed at 500 rpm for 5 min, and centrifuged at 4000 rpm for 20 min in a high speed centrifuge; to the supernatant (100 μL), water (100 μL) was added; the resultant mixture was mixed homogeneously under vortexing and analyzed by LC-MS/MS for blood concentration.
# Calculation for PK parameters: PK parameters were calculated by using Pharsight Phoenix 6.2 software.
# [2] = Comparison of stability between crystal forms and amorphous form, 60° C. uncovered, relevant substances by HPLC; assay type: physicochemical; conditions: for Change in total relevant substances (conclusion) / Increase of total relevant substances: 60° C. uncovered; for Change in total relevant substances (conclusion): 5 days and 10 days
# Experimental: Instrument: High Performance Liquid Chromatographic Instrument (Agilent 1260 series) Chromatographic column: chromatographic column using octylsilane chemically bonded silica as filler (HC-C8, 4.6×250 mm, 5 μm) Column temperature: 30° C. Detection wavelength: 230 nm Mobile phase: Mobile phase consisting of 0.06 mol/L sodium dihydrogen phosphate/0.06 mol/L sodium perchlorate solution-acetonitrile, and reversed-phase gradient elution was employed. Flow rate: 1.0 mL/min Injection volume: 10 μL
# [3] = Study on stability of Crystal form I, II and III (influencing factors; character, moisture content, relevant substances by HPLC, XRPD); assay type: physicochemical; conditions: for Stability of the samples (conclusion): influencing factor conditions (high temperature, high moisture, light)
# Experimental: The samples were tested for character, relevant substances, moisture content, XRPD pattern, etc. […] The samples were tested for relevant substances, content, character, moisture content, XRPD pattern, etc. During the study, the uncovered experimental samples were kept in cultured dishes in the air. […] During the study, the uncovered experimental samples were kept in cultured dishes in the air. […] With respect to relevant substances, in accordance with High Performance Liquid Chromatography in Appendix V D in Pharmacopoeia of the People's Republic of China (2010), the samples were determined by area normalization method. Instrument: High Performance Liquid Chromatographic Instrument (Agilent 1200/1260 series) Chromatographic column: chromatographic column using octylsilane chemically bonded silica as filler (HC-C8, 4.6×250 mm, 5 μm) Column temperature: 30° C. Detection wavelength: 230 nm Mobile phase: mobile phase consisting of 0.03 mol/L diammonium hydrogen phosphate/0.03 mol/L sodium perchlorate solution-acetonitrile, and reversed-phase gradient elution was employed. Flow rate: 1.0 mL/min Injection volume: 10 μL Method for determining moisture content: the moisture content was determined in accordance with First Method for Determining Moisture Content B (Coulometric Titration) in Appendix VIII M in Pharmacopoeia of the People's Republic of China (2010).
# [4] = 10 days, 40° C./RH75% uncovered
smiles,measurement,setting,value
"C=CC(=O)Nc1cc2c(Nc3ccc(F)c(Cl)c3)ncnc2cc1OCC1CC2(CCN(C)CC2)C1 [Crystal form I, N-(4-((3-chloro-4-fluorophenyl)amino)-7-((7-methyl-7-azaspiro[3.5]nonan-2-yl)methoxy)quinazolin-6-yl)acrylamide]",Pharmacokinetic properties (conclusion),[1],good pharmacokinetic properties
same,AUC0-t,[1]; suspension in water,1404 ng·h/mL
same,AUCinf,[1]; suspension in water,1414 ng·h/mL
same,Cmax (maximum blood concentration),[1]; suspension in water,134 ng/mL
same,T1/2 (drug elimination half-life),[1]; suspension in water,3.16 h
same,Tmax (time to maximum blood concentration),[1]; suspension in water,4 h
same,Total relevant substances,[2]; 0 day,0.23%
same,Change in total relevant substances (conclusion),[2],little increase in total relevant substances
same,Total relevant substances,[2]; 60° C. uncovered-5 days,0.48%
same,Total relevant substances,[2]; 60° C. uncovered-10 days,0.47%
same,Character,[3]; 0 day,light yellow
same,Crystal form,[3]; 0 day,crystal-
same,Moisture content,[3]; 0 day,5.0%
same,Relevant substance,[3]; 0 day,0.78%
same,Change in impurities,"[3]; 60° C.-uncovered, UV light, 10 days",increased to some extent
same,Character,"[3]; 5 days, 40° C./RH75% covered",light yellow
same,Crystal form,"[3]; 5 days, 40° C./RH75% covered",the same
same,Moisture content,"[3]; 5 days, 40° C./RH75% covered",5.1%
same,Relevant substance,"[3]; 5 days, 40° C./RH75% covered",0.74%
same,Character,"[3]; 5 days, 40° C./RH75% uncovered",light yellow
same,Crystal form,"[3]; 5 days, 40° C./RH75% uncovered",the same
same,Moisture content,"[3]; 5 days, 40° C./RH75% uncovered",5.4%
same,Relevant substance,"[3]; 5 days, 40° C./RH75% uncovered",0.76%
same,Character,"[3]; 5 days, 60° C. covered",light yellow
same,Crystal form,"[3]; 5 days, 60° C. covered",the same
same,Moisture content,"[3]; 5 days, 60° C. covered",5.0%
same,Relevant substance,"[3]; 5 days, 60° C. covered",0.75%
same,Character,"[3]; 5 days, 60° C. uncovered",light yellow
same,Crystal form,"[3]; 5 days, 60° C. uncovered",the same
same,Moisture content,"[3]; 5 days, 60° C. uncovered",4.9%
same,Relevant substance,"[3]; 5 days, 60° C. uncovered",1.3%
same,Character,"[3]; 5 days, RH-75%",light yellow
same,Crystal form,"[3]; 5 days, RH-75%",the same
same,Moisture content,"[3]; 5 days, RH-75%",5.5%
same,Relevant substance,"[3]; 5 days, RH-75%",0.78%
same,Character,"[3]; 5 days, RH-92.5%",light yellow
same,Crystal form,"[3]; 5 days, RH-92.5%",the same
same,Moisture content,"[3]; 5 days, RH-92.5%",5.5%
same,Relevant substance,"[3]; 5 days, RH-92.5%",0.78%
same,Character,"[3]; 5 days, visible light",light yellow
same,Crystal form,"[3]; 5 days, visible light",the same
same,Moisture content,"[3]; 5 days, visible light",5.1%
same,Relevant substance,"[3]; 5 days, visible light",0.74%
same,Character,"[3]; 10 days, 40° C./RH75% covered",light yellow
same,Crystal form,"[3]; 10 days, 40° C./RH75% covered",the same
same,Moisture content,"[3]; 10 days, 40° C./RH75% covered",4.9%
same,Relevant substance,"[3]; 10 days, 40° C./RH75% covered",0.73%
same,Character,[3]; [4],light yellow
same,Crystal form,[3]; [4],the same
same,Moisture content,[3]; [4],5.2%
same,Relevant substance,[3]; [4],0.79%
same,Character,"[3]; 10 days, 60° C. covered",light yellow
same,Crystal form,"[3]; 10 days, 60° C. covered",the same
same,Moisture content,"[3]; 10 days, 60° C. covered",4.8%
same,Relevant substance,"[3]; 10 days, 60° C. covered",0.78%
same,Character,"[3]; 10 days, 60° C. uncovered",light yellow
same,Crystal form,"[3]; 10 days, 60° C. uncovered",the same
same,Moisture content,"[3]; 10 days, 60° C. uncovered",4.6%
same,Relevant substance,"[3]; 10 days, 60° C. uncovered",1.4%
same,Character,"[3]; 10 days, RH-75%",light yellow
same,Crystal form,"[3]; 10 days, RH-75%",the same
same,Moisture content,"[3]; 10 days, RH-75%",5.7%
same,Relevant substance,"[3]; 10 days, RH-75%",0.70%
same,Character,"[3]; 10 days, RH-92.5%",light yellow
same,Crystal form,"[3]; 10 days, RH-92.5%",the same
same,Moisture content,"[3]; 10 days, RH-92.5%",5.8%
same,Relevant substance,"[3]; 10 days, RH-92.5%",0.79%
same,Character,"[3]; 10 days, UV light",light yellow
same,Crystal form,"[3]; 10 days, UV light",the same
same,Moisture content,"[3]; 10 days, UV light",5.2%
same,Relevant substance,"[3]; 10 days, UV light",0.89%
same,Increase of moisture content,"[3]; high moisture RH-75%, 10 days vs Day 0",0.7%
same,Increase of moisture content,"[3]; high moisture RH-92.5%, 10 days vs Day 0",0.8%
same,Stability of the samples (conclusion),[3]; 10 days,relatively stable
"C=CC(=O)Nc1cc2c(Nc3ccc(F)c(Cl)c3)ncnc2cc1OCC1CC2(CCN(C)CC2)C1 [Amorphous form, N-(4-((3-chloro-4-fluorophenyl)amino)-7-((7-methyl-7-azaspiro[3.5]nonan-2-yl)methoxy)quinazolin-6-yl)acrylamide]","Cmax and exposure amount (AUC) compared with Crystal form I, II and III",[1],significantly lower
same,"In vivo half-life compared with Crystal form I, II and III",[1],shorter
same,AUC(0-inf),"[1]; male, SD, rat, plasma, po, suspension in water",1150 ng·h/mL
same,AUC0-t,"[1]; male, SD, rat, plasma, po, suspension in water, read-out: AUC0-t",1140 ng·h/mL
same,Cmax,"[1]; male, SD, rat, plasma, po, suspension in water, read-out: Cmax (maximum blood concentration)",105 ng/mL
same,half-life,"[1]; male, SD, rat, plasma, po, suspension in water, read-out: T1/2 (drug elimination half-life) (converted)",3.08 h
same,Tmax,"[1]; male, SD, rat, plasma, po, suspension in water, read-out: Tmax (time to maximum blood concentration)",4 h
same,Total relevant substances,[2]; 0 day,1.1%
same,Change in total relevant substances (conclusion),[2],rapid increase in total relevant substances
same,Increase of total relevant substances,[2]; 5 days vs Day 0,1.3%
same,Increase of total relevant substances,[2]; 10 days vs Day 0,2.1%
same,Total relevant substances,[2]; 60° C. uncovered-5 days,2.4%
same,Total relevant substances,[2]; 60° C. uncovered-10 days,3.2%
"C=CC(=O)Nc1cc2c(Nc3ccc(F)c(Cl)c3)ncnc2cc1OCC1CC2(CCN(C)CC2)C1 [Crystal form III, N-(4-((3-chloro-4-fluorophenyl)amino)-7-((7-methyl-7-azaspiro[3.5]nonan-2-yl)methoxy)quinazolin-6-yl)acrylamide]",Pharmacokinetic properties (conclusion),[1],good pharmacokinetic properties
same,AUC0-t,[1]; suspension in water,1324 ng·h/mL
same,AUCinf,[1]; suspension in water,1340 ng·h/mL
same,Cmax (maximum blood concentration),[1]; suspension in water,134 ng/mL
same,T1/2 (drug elimination half-life),[1]; suspension in water,3.35 h
same,Tmax (time to maximum blood concentration),[1]; suspension in water,4 h
same,Total relevant substances,[2]; 0 day,0.81%
same,Change in total relevant substances (conclusion),[2],little increase in total relevant substances
same,Total relevant substances,[2]; 60° C. uncovered-5 days,1.1%
same,Total relevant substances,[2]; 60° C. uncovered-10 days,2.0%
same,Character,[3]; 0 day,light yellow powder
same,Moisture content,[3]; 0 day,3.5%
same,Total relevant substances,[3]; 0 day,0.66%
same,Increase of total relevant substances,"[3]; 60° C. uncovered, 5 days vs Day 0",0.28%
same,Increase of total relevant substances,"[3]; 60° C. uncovered, 10 days vs Day 0",0.44%
same,Character,"[3]; 5 days, 40° C./RH75% covered",light yellow powder
same,Moisture content,"[3]; 5 days, 40° C./RH75% covered",3.6%
same,Total relevant substances,"[3]; 5 days, 40° C./RH75% covered",0.57%
same,Character,"[3]; 5 days, 40° C./RH75% uncovered",light yellow powder
same,Moisture content,"[3]; 5 days, 40° C./RH75% uncovered",3.9%
same,Total relevant substances,"[3]; 5 days, 40° C./RH75% uncovered",0.63%
same,Character,"[3]; 5 days, 60° C. covered",light yellow powder
same,Moisture content,"[3]; 5 days, 60° C. covered",3.6%
same,Total relevant substances,"[3]; 5 days, 60° C. covered",0.60%
same,Character,"[3]; 5 days, 60° C. uncovered",light yellow powder
same,Moisture content,"[3]; 5 days, 60° C. uncovered",3.5%
same,Total relevant substances,"[3]; 5 days, 60° C. uncovered",0.94%
same,Character,"[3]; 5 days, RH-75%",light yellow powder
same,Moisture content,"[3]; 5 days, RH-75%",4.0%
same,Total relevant substances,"[3]; 5 days, RH-75%",0.62%
same,Character,"[3]; 5 days, RH-92.5%",light yellow powder
same,Moisture content,"[3]; 5 days, RH-92.5%",4.0%
same,Total relevant substances,"[3]; 5 days, RH-92.5%",0.58%
same,Character,"[3]; 5 days, visible light",light yellow powder
same,Moisture content,"[3]; 5 days, visible light",3.7%
same,Total relevant substances,"[3]; 5 days, visible light",0.68%
same,Character,"[3]; 10 days, 40° C./RH75% covered",light yellow powder
same,Moisture content,"[3]; 10 days, 40° C./RH75% covered",3.6%
same,Total relevant substances,"[3]; 10 days, 40° C./RH75% covered",0.59%
same,Character,[3]; [4],light yellow powder
same,Moisture content,[3]; [4],3.9%
same,Total relevant substances,[3]; [4],0.62%
same,Character,"[3]; 10 days, 60° C. covered",light yellow powder
same,Moisture content,"[3]; 10 days, 60° C. covered",3.5%
same,Total relevant substances,"[3]; 10 days, 60° C. covered",0.64%
same,Character,"[3]; 10 days, 60° C. uncovered",light yellow powder
same,Moisture content,"[3]; 10 days, 60° C. uncovered",3.4%
same,Total relevant substances,"[3]; 10 days, 60° C. uncovered",1.1%
same,Character,"[3]; 10 days, RH-75%",light yellow powder
same,Moisture content,"[3]; 10 days, RH-75%",3.8%
same,Total relevant substances,"[3]; 10 days, RH-75%",0.56%
same,Character,"[3]; 10 days, RH-92.5%",light yellow powder
same,Moisture content,"[3]; 10 days, RH-92.5%",4.3%
same,Total relevant substances,"[3]; 10 days, RH-92.5%",0.60%
same,Character,"[3]; 10 days, UV light",light yellow powder
same,Moisture content,"[3]; 10 days, UV light",3.8%
same,Total relevant substances,"[3]; 10 days, UV light",0.70%
same,Stability of the samples (conclusion),[3]; 10 days,good stability
